Measurements: patent US3984432A, “Color photographic recording material” (priority 1973, dated 1976)

Experiment: Absorption maximum after colour development in a photographic silver halide layer according to Use Example I
Assay type: physicochemical
Conditions: not given
Outline: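 Coupling agent dispersed in tricresyl phosphate with gelatine at pH 6.5, mixed with silver bromide emulsion and hardener, cast on glass plates and dried at 32° C. Strips exposed to 500 Lux/cm^2 under a step wedge for 2 seconds, then processed at 24° C; absorption maximum read after colour development.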

Row | Compound | Abs.max. (single maximum) [nm]
1 | CCCCOP(=O)(CC(=O)Nc1cccc(NC(=O)CC(=O)c2ccccc2)c1)OCCCC [(109)] | 442
2 | CCCCOP(=O)(Cc1ccc(CP(=O)(OCCCC)OCCCC)c(NC(=O)c2ccc(OC)c(NC(=O)CC(=O)c3ccccc3OCC)c2)c1)OCCCC [(137)] | 425
3 | CCCCOP(=O)(Cc1ccc(CP(=O)(OCCCC)OCCCC)c(NC(=O)c2ccc(OC)c(NC(=O)CC(=O)c3ccc(C(C)(C)C)cc3)c2)c1)OCCCC [(136)] | 440
4 | CCOP(=O)(OCC)C(C)(C)NC(=O)c1cccc(NC(=O)CC(=O)c2ccc([N+](=O)[O-])cc2)c1 [(110)] | 440
5 | COc1ccc(C(=O)NCCCP(=O)(OC(C)C)OC(C)C)cc1NC(=O)CC(=O)c1ccccc1Cl [(128)] | 447
6 | CCOP(=O)(Cc1ccc(NC(=O)CC(=O)c2ccccc2)cc1)OCC [(102)] | 438
7 | COc1ccc(C(=O)NCCCP(=O)(OC(C)C)OC(C)C)cc1NC(=O)CC(=O)c1ccc(Cl)cc1 [(127)] | 444
8 | CCCCOP(=O)(CCCc1ccc(NC(=O)CC(=O)c2ccccc2)cc1)OCCCC [(124)] | 436
9 | CCOP(=O)(OCC)C(C)(C)NC(=O)c1cccc(NC(=O)CC(=O)c2ccccc2)c1 [(108)] | 440
10 | CCCCOP(=O)(CC(=O)Nc1cccc(NC(=O)CC(=O)C(C)(C)C)c1)OCCCC [(105)] | 436
11 | CCCCC(CC)COP(=O)(CCCNC(=O)c1ccc(Cl)c(NC(=O)CC(=O)C(C)(C)C)c1)OCC(CC)CCCC (stereo not drawn) [(135)] | 445

Same assay, conditions: pyrazolone coupling agents

Row | Compound | Abs.max., first of two maxima (subsidiary maximum) [nm] | Abs.max., second of two maxima (absorption maximum) [nm]
12 | CCOP(=O)(CCCOc1cccc(C(=O)Nc2ccc(C(=O)NC3=NN(c4c(Cl)cc(Cl)cc4Cl)C(=O)C3)cc2)c1)OCC [(201)] | 432 | 542
13 | CC(C)OP(=O)(CCCCCOc1cccc(C(=O)Nc2cccc(C(=O)NC3=NN(c4ccccc4)C(=O)C3)c2)c1)OC(C)C [(246)] | 440 | 532
14 | CCOP(=O)(CCCOc1cc(OCCCP(=O)(OCC)OCC)cc(C(=O)Nc2cccc(C(=O)NC3=NN(c4ccccc4)C(=O)C3)c2)c1)OCC [(228)] | 438 | 533
15 | CCOP(=O)(CCCCCOc1cccc(C(=O)NC2=NN(c3c(Cl)cc(Cl)cc3Cl)C(=O)C2)c1)OCC [(213)] | 434 | 537
16 | CCCCOP(=O)(CCCOc1cc(OCCCP(=O)(OCCCC)OCCCC)cc(C(=O)Nc2cccc(C(=O)NC3=NN(c4nc5ccccc5s4)C(=O)C3)c2)c1)OCCCC [(258)] | 550 | 580
17 | CCOP(=O)(CCCCCOc1cc(OCCCCCP(=O)(OCC)OCC)cc(C(=O)Nc2cccc(C(=O)NC3=NN(c4ccccc4)C(=O)C3)c2)c1)OCC [(226)] | 439 | 534
18 | CCCCC(CC)COP(=O)(CCCOc1cccc(C(=O)Nc2cccc(C(=O)NC3=NN(c4c(C)cc(OC)cc4Cl)C(=O)C3)c2)c1)OCC(CC)CCCC (stereo not drawn) [(264)] | 440 | 536
19 | CCCCC(CC)COP(=O)(CCCOc1cccc(C(=O)Nc2cccc(C(=O)NC3=NN(c4nc5ccccc5s4)C(=O)C3)c2)c1)OCC(CC)CCCC (stereo not drawn) [(259)] | 548 | 583
20 | CCCCOP(=O)(CCCOc1ccc(C(=O)Nc2cccc(C(=O)NC3=NN(c4c(Cl)cc(Cl)cc4Cl)C(=O)C3)c2)c(OCCCP(=O)(OCCCC)OCCCC)c1)OCCCC [(248)] | 436 | 541
21 | CCOP(=O)(CCCOc1cccc(C(=O)Nc2cccc(NC3=NN(c4ccccc4)C(=O)C3)c2)c1)OCC [(414)] | 430 | 530

Experiment: Solubility of coupling agents in tricresyl phosphate (oil) at 20° C (Table A)
Assay type: physicochemical
Conditions: not given

Row | Compound | Solubility in g per g of tricresyl phosphate
22 | CCCCCCCCCCCCCCCc1cccc(OC(CC)C(=O)Nc2cccc(C(=O)NC3=NN(c4c(Cl)cc(Cl)cc4Cl)C(=O)C3)c2)c1 (stereo not drawn) | 0.3 g per g of tricresyl phosphate
23 | CCCCOP(=O)(CC(=O)Nc1cccc(NC(=O)CC(=O)c2ccccc2)c1)OCCCC [(109)] | > 5 g per g of tricresyl phosphate
24 | CCC(Oc1ccc(C(C)(C)CC)cc1C(C)(C)CC)C(=O)Nc1cc(Cl)c(C)c(Cl)c1O (stereo not drawn) [US-PS 2,801,171 Coupling agent No. (4)] | 0.4 g per g of tricresyl phosphate
25 | CCCCCCCCCCCCOc1cccc(OC(CC)C(=O)Nc2cccc(C(=O)NC3=NN(c4c(Cl)cc(Cl)cc4Cl)C(=O)C3)c2)c1 (stereo not drawn) | 0.4 g per g of tricresyl phosphate
26 | CCC(C)(C)c1ccc(OCC(=O)Nc2cccc(C(=O)NC3=NN(c4c(Cl)cc(Cl)cc4Cl)C(=O)C3)c2)c(C(C)(C)CC)c1 | 0.6 g per g of tricresyl phosphate
27 | CCCCCCCCCCOc1cccc(OCCC(=O)Nc2cccc(NC(=O)CC(=O)c3ccccc3C)c2)c1 [DT-OS 2,039,970] | 1 g per g of tricresyl phosphate
28 | CCCCCCCCCCCCCCCCCCNS(=O)(=O)c1ccc(N(CCCC)CCCC)c(NC(=O)CC(=O)c2ccccc2)c1 [DT-OS 1,522,414] | 1.2 g per g of tricresyl phosphate
29 | CCCCCCCCCCCCOc1cccc(OC(CC)C(=O)Nc2cc(Cl)c(C)c(Cl)c2O)c1 (stereo not drawn) | 0.7 g per g of tricresyl phosphate
30 | COc1ccc(C(=O)NCCCP(=O)(OC(C)C)OC(C)C)cc1NC(=O)CC(=O)c1ccccc1Cl [(128)] | > 5 g per g of tricresyl phosphate
31 | CCCCCCCCCCCCCCCc1cccc(OC(CC)C(=O)Nc2cc(Cl)c(C)c(Cl)c2O)c1 (stereo not drawn) | 0.7 g per g of tricresyl phosphate
32 | CCCCC(CC)COP(=O)(CCCNC(=O)c1ccc(Cl)c(NC(=O)CC(=O)C(C)(C)C)c1)OCC(CC)CCCC (stereo not drawn) [(135)] | > 5 g per g of tricresyl phosphate
